Data published in patent US20200022967A1, “Use of 2-carboxamide cycloamino urea derivatives in the treatment of EGFR dependent diseases or diseases that have acquired resistance to agents that target EGFR family members” (Novartis AG, priority 2010, published 2020).

Columns and labels:
HBCx-5 xenograft tumor = experiment: HBCx-5 breast cancer xenograft, antitumor activity (Example 5); assay type: in vivo, mice; settings: capecitabine 40 mg/kg single agent p.o., five times per week, two cycles; p<0.001
Experimental: Compound A was suspended at mg/ml in 0.5% methylcellulose (Sigma Aldrich, St. Louis, Mo.). It was homogenized by stirring vortexing and sonication. The suspension was stored at 4° C. for 7 days protected from light. […] Stock solution at 21 mg/ml was diluted just before administration at 1 mg/ml with sterile water for injection. Capecitabine (Xeloda®, Roche) at […] was kept at 4° C. protected from light. Capecitabine pellets were crushed and suspended in NaCl 0.9%.
Dose was body weight adjusted at each injection.
Capecitabine was administered by oral gavage (p.o.) at […], five times per week for two weeks (i.e., five consecutive dosing days/week). After a one week rest, a second treatment cycle was performed.

[1] = Body weight loss in HBCx-5 xenograft study (Example 5); settings: capecitabine single agent; significant and transient
Experimental: Experiments were performed in female HSD: athymic nude-Foxn1nu mice approximately 8-10 weeks of age and weighing approximately 19-25 grams. The mice were allowed to acclimate with access to food and water ad libitum for 6 days prior to the study. When body weight loss reaches 15% compared to the first day of treatment, DietGel® was provided to the animals.
The mice were divided into five groups each comprising ten mice. Treatments were initiated 34 days post-implantation of the HBCx-5 xenograft tumor. […] For xenograft implantation, the mice were anesthetized with 100 mg/kg ketamine hydrochloride and 10 mg/kg xylazine. Using asceptic technique, the mice were grafted in interscapular with 3 mm on 3 mm tumor fragment. […] Tumors were measured with calipers three times per week at the start of dosing. Tumors were calculated using the formula: =width^2×length/2. Tumor size and body weight were measured three times per week during the treatment period. The planned endpoints for the experiment were a treatment phase of six weeks and no follow-up phase.
Antitumor activity is expressed as T/C % (mean change of tumor volume of treated animals/mean change of tumor volume of control animals)×100. Tumor volume and relative body weight were used for statistical analysis. Group comparisons were performed using a Mann Whitney non parametric test between treated group and control group.

NCI-N87 tumors = experiment: NCI-N87 xenograft in CB17 SCID mice, Compound A alone and with lapatinib (Example 6); assay type: in vivo; settings: for Median TTE: control 26.2, vs G1 ***; for Mean Tumor Volume (no. animals, n) Day 59: n=1
Experimental: The NCI-N87 cells were harvested with 5× trypsin. Eight days after tumor implantation (on Day 1 of the study), mice with an individual tumor volume of 88-196 mm^3 were sorted into 10 groups of ten mice with a group mean tumor volume of 143-149 mm^3.
Where applicable, data is presented as mean±SEM. Each animal was euthanized when its neoplasm reached the endpoint volume (1000 mm^3), or on the last day of the study (Day 59). Time to endpoint (TTE) is calculated by the equation: TTE=(log10(endpoint volume)−b)/m, where TTE is expressed in days, endpoint volume is in mm3, b is the intercept and m is the slope of the line obtained by linear regression of a log-transformed tumor growth data set. Treatment efficacy was determined from Tumor Growth Delay (TGD), which was defined as the increase in the median time to endpoint (TTE) for a treatment group compared to the control group (TGD=T−C), expressed in days, or as a percentage of the median TTE of the control group (% TGD=((T−C)/C)×100), wherein T=median TTE for a treatment group and C=median TTE for the designated control group.
Statistical and graphical analyses was performed with Prism 3.03 (GraphPad) for Windows. For all tests, the level of significance of differences was done using ANOVA, with Bartlett's test; and a post-hoc Dunnett's multiple comparison test compared the mean change for each drub-treated group to the mean for Group 1. Survival was analyzed by the Kaplan-Meier method. The logrank test was employed to analyze the significance of the difference between the overall survival experiences of two groups, based on time to endpoint (TTE) values. The two-tailed statistical analyses were conducted at P=0.05. Prism summarizes test results as not significant (ns) at P>0.05, significant (symbolized by “*”) at 0.01<P<0.05, very significant (symbolized by “**”) at 0.001<P<0.01, and extremely significant (symbolized by “***”) at P<0.001.

[2] = Body weight nadir and deaths in NCI-N87 lapatinib study (Example 6)
Experimental: Treatments started eight days post tumor cell implantation and lasted for 59 consecutive days or until tumor volume=1000 mm^3. […] For the b.i.d. dosing schedule, the first dose was given p.m. on Day 1 and last dose a.m. on Day 22. […] Body weights were recorded on Days 1-5, on each treatment day (except weekends), and twice weekly thereafter until end of the study.

[3] = Group 4 (10 animals): lapatinib 50 mg/kg p.o. b.i.d.
[4] = Group 4: lapatinib 50 mg/kg p.o. b.i.d.
[5] = Group 5 (10 animals): lapatinib 100 mg/kg p.o. once daily
[6] = Group 5: lapatinib 100 mg/kg p.o. once daily
[7] = Group 6 (9 animals): lapatinib 150 mg/kg p.o. once daily
[8] = Group 6: lapatinib 150 mg/kg p.o. once daily

## CCCCCOC(=O)Nc1nc(=O)n([C@@H]2O[C@H](C)[C@@H](O)[C@H]2O)cc1F [Capecitabine, reference compound]
HBCx-5 xenograft tumor
  T/C: 9.03%
[1]
  body weight loss: 9.1%

## CS(=O)(=O)CCNCc1ccc(-c2ccc3ncnc(Nc4ccc(OCc5cccc(F)c5)c(Cl)c4)c3c2)o1 [lapatinib]
NCI-N87 tumors; [3]
  Regressions CR: CR: 0
  Regressions PR: PR: 0,
NCI-N87 tumors; Group 4 (10 animals): lapatinib 50 mg/kg p.o. b.i.d. for 21 days
  Median TTE: 47.7 days
NCI-N87 tumors; [4]
  % TGD: 66%
  Mean Tumor Volume (no. animals, n) Day 59: 608 (1)
NCI-N87 tumors; [5]
  Regressions CR: CR: 0
  Regressions PR: PR: 0,
NCI-N87 tumors; [6]
  % TGD: 82%
  T-C: 16.4 days
  Mean Tumor Volume (no. animals, n) Day 59: 750 (1)
NCI-N87 tumors; [7]
  Regressions CR: CR: 0
  Regressions PR: PR: 1,
NCI-N87 tumors; Group 6 (9 animals): lapatinib 150 mg/kg p.o. once daily for 21 days
  Median TTE: 50.6 days
NCI-N87 tumors; [8]
  % TGD: 63%
  T-C: 24.4 days
[2]; [3]
  Deaths (TR/NTR): 0
[2]; [5]
  Deaths (TR/NTR): 0
[2]; [8]
  Deaths NTR = non-treatment related: NTR: 1
  Deaths TR = treatment-related: TR: 0
